Measured values: US20090269409A1, “PHARMACEUTICAL COMPOSITIONS COMPRISING ESZOPICLONE” (priority 2008, published 2009)
Values after ≈ are worked out from the molar mass of the structure shown. Read-outs that look alike come from different tables or passages of the source.

Legend:
[1] = Excipient compatibility and stability study of eszopiclone/excipient mixtures (impurity analysis before and after storage); assay type: physicochemical
Description: 1) Eszopiclone and excipient in the stated ratios were mixed well and sifted through an ASTM #40 mesh sieve.
2) The mixture was placed into 20 mL amber glass vials and stored under conditions of 40° C. and 75% relative humidity (RH), or at 50° C., for 1 month. Impurity analyses were performed before and after storage, and values in the table below are percentages of the initial eszopiclone content.

[2] = Saturated solubility of eszopiclone in various solvents (shake flask, HPLC); assay type: physicochemical; settings: thermodynamic from solid, room temperature
Description: 1) 100 mL of the solvent was placed into a 250 mL volumetric flask.
2) 10 mg of eszopiclone was added to the flask.
3) The flask contents were mixed for 24 hours using a rotary shaker to dissolve the eszopiclone completely.
4) Eszopiclone was added at room temperature to the clear solution of 3) in small amounts (up to about 100 mg) until undissolved eszopiclone was noted after shaking.
5) The flask was subjected to shaking for an additional 24 hours.
6) Presence of insoluble eszopiclone was checked and the pH of the solution was recorded.
7) A portion of step 6) solution was subjected to centrifugation until a clear solution was obtained, and/or was filtered through an ASTM #40 mesh sieve.
8) Content of the drug substance was determined using HPLC, comparing with a standard solution prepared preferably in the same solvent.
9) Amount of the drug substance dissolved was calculated as a percentage (weight/volume): […]
The actual amount of drug substance dissolved in mg is:
The solubility of the drug substance in mg/ml in the solvent medium tested is: S=m÷100.
Saturated solubility was determined in solvents as described below.

[3] = cited from earlier work
[4] = Observed susceptibility of eszopiclone to degradation; assay type: physicochemical; settings: with significant increase in the 5-chloro-2-aminopyridine content
[5] = 1 Month, 40° C./75% RH, amber glass vials
[6] = 1 Month, 50° C., amber glass vials

SMILES: CN1CCN(C(=O)O[C@H]2c3nccnc3C(=O)N2c2ccc(Cl)cn2)CC1 [Eszopiclone, (+)-(5S)-6-(5-chloropyridin-2-yl)-7-oxo-6,7-dihydro-[3,4-b]pyrazin-5-yl-4-methylpiperazine-1-carboxylate]
- Imp (5-chloro-2-aminopyridine) [1, 5]: 0.47 percentages of the initial eszopiclone content
- T.I. (Total impurities) [1, 5]: 0.33 percentages of the initial eszopiclone content
- Imp (5-chloro-2-aminopyridine) [1, 6]: 0.35 percentages of the initial eszopiclone content
- T.I. (Total impurities) [1, 6]: 0.5 percentages of the initial eszopiclone content
- Imp (5-chloro-2-aminopyridine) ([1]; Initial): 0.01 percentages of the initial eszopiclone content
- T.I. (Total impurities) ([1]; Initial): 0.02 percentages of the initial eszopiclone content
- solubility at 24 h ([2]; aqueous buffer, Acetate buffer (pH 4.5)): 11600 µg/mL (≈ 29.9 mM)
- solubility at 24 h ([2]; aqueous buffer, Phosphate buffer (pH 6.8)): 680 µg/mL (≈ 1.75 mM)
- solubility at 24 h ([2]; aqueous buffer, Phosphate buffer (pH 7.5)): 330 µg/mL (≈ 0.849 mM)
- solubility at 24 h ([2]; aqueous with cosolvent or surfactant or cyclodextrin, 0.5% Sodium lauryl sulphate in water): 1830 µg/mL (≈ 4.71 mM)
- solubility at 24 h ([2]; simulated gastric fluid, 0.01N HCl): 4180 µg/mL (≈ 10.8 mM)
- solubility at 24 h ([2]; simulated gastric fluid, 0.1N Hydrochloric acid (pH 1.2)): 39100 µg/mL (≈ 101 mM)
- solubility at 24 h ([2]; simulated gastric fluid, Acid buffer (pH 1), potassium chloride/HCl): 23000 µg/mL (≈ 59.2 mM)
- solubility at 24 h ([2]; Simulated gastric fluid (pH 1.2)): 8180 µg/mL (≈ 21 mM)
- solubility at 24 h ([2]; Water): 300 µg/mL (≈ 0.772 mM)
- Solubility (descriptive) ([3]; in ethanol): slightly soluble
- Solubility (descriptive) ([3]; in phosphate buffer of pH 3.2): soluble
- Solubility (descriptive) ([3]; in water): very slightly soluble
- Susceptibility to oxidative degradation (including by atmospheric oxygen) and acid hydrolysis [4]: highly susceptible
